Source: US20100010053A1, “COMPOUNDS” (priority 2008, published 2010)

What was measured:
[1] = target: T1, human S1P1 receptor (EDG1) (Homo sapiens, UniProt P21453); assay: S1P1 GTPγS assay or S1P1 Tango assay (at least one of the above assays); format: cell-based; conditions: read-out: pEC50 in at least one of the above assays (converted)
T1 construct: TEV protease site + Gal4-VP16 transcription factor (only in the Tango assay cells; not described for the GTPγS membranes); expressed in transfected cells; host or cells: rat hepatoma cells (membranes, GTPγS assay) or Tango EDG1-bla U2OS cells (Tango assay)
Protocol: For membrane preparations all steps were performed at 4° C. Rat hepatoma cells stably expressing the human S1P1 receptor or Rat Basophilic Leukaemia cells (RBL) stably expressing human S1P3 receptor were grown to 80% confluency before being harvested into 10 ml Phospho-Buffered Saline (PBS) and centrifuged at 1200 rpm for 5 minutes. After removal of the supernatant, the pellet was re-suspended and cells were homogenised within a glass Waring blender for 2 bursts of 15 secs in 200 mls of buffer (50 mM HEPES, 1 mM leupeptin, 25 μg/ml bacitracin, 1 mM EDTA, 1 mM PMSF, 2 μM pepstatin A). The blender was plunged into ice for 5 mins after the first burst and 10-40 mins after the final burst to allow foam to dissipate. The material was then spun at 500 g for 20 mins and the supernatant spun for 36 mins at 48,000 g. The pellet was resuspended in the same buffer as above but without PMSF and pepstatin A. The material was then forced through a 0.6 mm needle, made up to the required volume, (usually ×4 the volume of the original cell pellet), aliquoted and stored frozen at −80° C. S1P1 GTPγS assay Human S1P1 rat hepatoma membranes (1.5 μg/well) were adhered to a wheatgerm agglutinin (WGA)-coated scintillation proximity assay (SPA) beads (0.125 mg/well) in assay buffer (HEPES 20 mM, MgCl2 10 mM, NaCl 100 mM and pH adjusted to 7.4 using KOH 5M, GDP 10 μM FAC (final assay concentration) and saponin 90 μg/ml FAC was also added).
After 30 minutes pre-coupling on ice the bead and membrane suspension was dispensed into a white Greiner polypropylene LV384-well plate (5 μl/well), containing 0.1 μl of the compound. 5 μl/well [^35S]-GTPγS (0.5 nM final radioligand conc) made up in assay buffer was then added to agonist plates. The final assay cocktail (10.1 μl) was then centrifuged at 1000 rpm for 5 minutes then read immediately on a Viewlux reader.
All test compounds were dissolved in DMSO at a concentration of 10 mM and were prepared in 100% DMSO using a 1 in 4 dilution step to provide 11 point dose response curves. The dilutions were transferred to the assay plates ensuring that the DMSO concentration was constant across the plate for all assays.
All data was normalized to the mean of 16 high and 16 low control wells on each plate. A four parameter curve fit was then applied.
Recombinant EDG1-bla/U2OS cells (contain the human Endothelial Differentiation Gene 1 (EDG1) linked to a TEV protease site and a Gal4-VP16 transcription factor stably integrated into the Tango GPCR-bla U2OS parental cell line) were suspended in assay medium (Invitrogen Freestyle Expression Medium) at a density of 312, 500 cells/ml. Add 100 μl/well of the assay medium to the cell-free control wells (column 12) and 100 μl/well of the cell suspension to the test compound wells (row 2-8, column 1-10), the unstimulated control wells (DMSO) (column 11), and stimulated control wells (S1P) (row 1, column 1-10) in a Corning black-well, clear bottom 96-well plate. Cells were incubated at 37° C., 5% CO2 for 44-48 h. Add 25 μl of 5× stock solution of test compounds in assay medium with 0.5% DMSO to the test compound wells, 25 μl of 5× stock solution of agonist (S1P) in assay medium with 0.5% DMSO to the stimulated compound wells, and 25 μl of 5× stock solution of 0.5% DMSO in assay medium to the unstimulated control and cell-free control wells.
After incubation at 37° C., 5% CO2 for 5 h, 25 μl of 6× substrate mixture (6 μl Solution A (1 mg LiveBLAzer™-FRET B/G substrate (CCF4-AM) in 912 μl DMSO) plus 60 μl Solution B plus 934 μl Solution C) was added to each well and incubate at room temperature for 2 h in dark. The plate was finally read on EnVision for two emission channels (460 nm and 530 nm).
All test compounds were dissolved in DMSO at a concentration of 10 mM and were prepared in 100% DMSO using a 1 in 5 dilution step to provide 10 point dose response curves. […]

[2] = clinical studies, first 24 hours of treatment; cited from earlier work
[3] = tested on: circulating lymphocytes; conditions: animals and man; cited from earlier work

T1 sequence (P21453 whole entry, the tested form may be a part): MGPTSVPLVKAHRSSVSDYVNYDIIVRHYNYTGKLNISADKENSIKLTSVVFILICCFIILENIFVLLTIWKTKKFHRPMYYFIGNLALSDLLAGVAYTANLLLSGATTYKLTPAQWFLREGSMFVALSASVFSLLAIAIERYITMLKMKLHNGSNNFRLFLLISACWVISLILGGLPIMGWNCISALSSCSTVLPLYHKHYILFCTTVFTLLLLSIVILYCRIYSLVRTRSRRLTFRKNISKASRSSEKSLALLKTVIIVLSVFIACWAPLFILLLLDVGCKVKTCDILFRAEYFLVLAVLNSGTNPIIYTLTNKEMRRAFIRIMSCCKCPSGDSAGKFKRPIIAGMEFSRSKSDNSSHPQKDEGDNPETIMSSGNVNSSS

EC50 [1] [nM] | SMILES | also measured
< 10 | CC(C)Oc1ccc(-c2nc(-c3cccc4c(CN5CCC(C(=O)O)CC5)c[nH]c34)no2)cc1Cl [Example 48, 1-{[7-(5-{3-chloro-4-[(1-methylethyl)oxy]phenyl}-1,2,4-oxadiazol-3-yl)-1H-indol-3-yl]methyl}-4-piperidinecarboxylic acid] | 
< 1 | CC(C)Oc1ccc(-c2nc(-c3cccc4c(CN[C@H](C)C(=O)O)c[nH]c34)no2)cc1Cl [Example 49, N-{[7-(5-{3-chloro-4-[(1-methylethyl)oxy]phenyl}-1,2,4-oxadiazol-3-yl)-1H-indol-3-yl]methyl}-D-alanine] | 
< 1 | CC(C)Oc1ccc(-c2nc(-c3cccc4c(CNCCC(=O)O)cn(C)c34)no2)cc1Cl [Example 58, N-{[7-(5-{3-chloro-4-[(1-methylethyl)oxy]phenyl}-1,2,4-oxadiazol-3-yl)-1-methyl-1H-indol-3-yl]methyl}-β-alanine] | 
< 10 | CC(C)Oc1ccc(-c2nc(-c3cccc4c(CCN5CC(C(=O)O)C5)cn(C)c34)no2)cc1Cl [Example 67, 1-{2-[7-(5-{3-chloro-4-[(1-methylethyl)oxy]phenyl}-1,2,4-oxadiazol-3-yl)-1-methyl-1H-indol-3-yl]ethyl}-3-azetidinecarboxylic acid] | 
< 10 | CC(C)Oc1ccc(-c2nc(-c3cccc4c(CCNC5(C(=O)O)CC5)cn(C)c34)no2)cc1Cl [Example 68, 1-({2-[7-(5-{3-chloro-4-[(1-methylethyl)oxy]phenyl}-1,2,4-oxadiazol-3-yl)-1-methyl-1H-indol-3-yl]ethyl}amino)cyclopropanecarboxylic acid] | 
< 1 | CC(C)Oc1ccc(-c2nc(-c3cccc4c(C(=O)NCCC(=O)O)c[nH]c34)no2)cc1Cl [Example 73, N-{[7-(5-{3-chloro-4-[(1-methylethyl)oxy]phenyl}-1,2,4-oxadiazol-3-yl)-1H-indol-3-yl]carbonyl}-β-alanine] | 
< 1 | CC(C)Oc1ccc(-c2nc(-c3cccc4c(C(=O)NCCCC(=O)O)c[nH]c34)no2)cc1Cl [Example 74, 4-({[7-(5-{3-chloro-4-[(1-methylethyl)oxy]phenyl}-1,2,4-oxadiazol-3-yl)-1H-indol-3-yl]carbonyl}amino)butanoic acid] | 
< 10 | CC(C)Oc1ccc(-c2nc(-c3cccc4c(C(=O)N(C)CCC(=O)O)c[nH]c34)no2)cc1Cl [Example 75, N-{[7-(5-{3-chloro-4-[(1-methylethyl)oxy]phenyl}-1,2,4-oxadiazol-3-yl)-1H-indol-3-yl]carbonyl}-N-methyl-β-alanine] | 
< 1 | CC(C)Oc1ccc(-c2nc(-c3cccc4c(C(=O)NCCC(=O)O)cn(C)c34)no2)cc1Cl [Example 76, N-{[7-(5-{3-chloro-4-[(1-methylethyl)oxy]phenyl}-1,2,4-oxadiazol-3-yl)-1-methyl-1H-indol-3-yl]carbonyl}-β-alanine] | 
≥ 1000 | CC(C)Oc1ncc(-c2nc(-c3ccc4c(CN5CCC(C(=O)O)CC5)c[nH]c4c3)no2)cc1Cl [Example 78, 1-{[6-(5-{5-chloro-6-[(1-methylethyl)oxy]-3-pyridinyl}-1,2,4-oxadiazol-3-yl)-1H-indol-3-yl]methyl}-4-piperidinecarboxylic acid] | 
< 10 | CC(C)Oc1ccc(-c2nc(-c3cccc4c(CCOCC(=O)O)cn(C)c34)no2)cc1Cl [Example 79, ({2-[7-(5-{3-chloro-4-[(1-methylethyl)oxy]phenyl}-1,2,4-oxadiazol-3-yl)-1-methyl-1H-indol-3-yl]ethyl}oxy)acetic acid] | 
< 10 | CC(C)Oc1ccc(-c2nc(-c3cccc4c(CCCOCC(=O)O)cn(C)c34)no2)cc1Cl [Example 80, ({3-[7-(5-{3-chloro-4-[(1-methylethyl)oxy]phenyl}-1,2,4-oxadiazol-3-yl)-1-methyl-1H-indol-3-yl]propyl}oxy)acetic acid] | 
< 10 | CC(C)Oc1ccc(-c2nc(-c3ccc4[nH]c(CCC(=O)O)cc4c3)no2)cc1C#N [Example 89, 3-[5-(5-{3-cyano-4-[(1-methylethyl)oxy]phenyl}-1,2,4-oxadiazol-3-yl)-1H-indol-2-yl]propanoic acid] | 
< 10 | CC(C)Oc1ncc(-c2nc(-c3cc(F)cc4c(CCC(=O)O)c[nH]c34)no2)cc1Cl [Example 101, 3-[7-(5-{5-Chloro-6-[(1-methylethyl)oxy]-3-pyridinyl}-1,2,4-oxadiazol-3-yl)-5-fluoro-1H-indol-3-yl]propanoic acid] | 
< 1 | CC(C)Oc1ncc(-c2nc(-c3cc(F)cc4c(CCC(=O)O)cn(C)c34)no2)cc1Cl [Example 102, 3-[7-(5-{5-Chloro-6-[(1-methylethyl)oxy]-3-pyridinyl}-1,2,4-oxadiazol-3-yl)-5-fluoro-1-methyl-1H-indol-3-yl]propanoic acid] | 
< 1 | CC(C)Oc1ccc(-c2nc(-c3c(F)ccc4c(CCC(=O)O)c[nH]c34)no2)cc1Cl [Example 103, 3-[7-(5-{3-Chloro-4-[(1-methylethyl)oxy]phenyl}-1,2,4-oxadiazol-3-yl)-6-fluoro-1H-indol-3-yl]propanoic acid] | 
< 10 | CC(C)Oc1ccc(-c2nc(-c3c(F)ccc4c(CCC(=O)O)cn(C)c34)no2)cc1Cl [Example 104, 3-[7-(5-{3-Chloro-4-[(1-methylethyl)oxy]phenyl}-1,2,4-oxadiazol-3-yl)-6-fluoro-1-methyl-1H-indol-3-yl]propanoic acid] | 
< 1 | CC(C)Oc1ccc(-c2nc(-c3c(F)ccc4c(CCC(=O)O)c[nH]c34)no2)cc1C#N [Example 105, 3-[7-(5-{3-Cyano-4-[(1-methylethyl)oxy]phenyl}-1,2,4-oxadiazol-3-yl)-6-fluoro-1H-indol-3-yl]propanoic acid] | 
< 10 | CC(C)Oc1ccc(-c2nc(-c3c(F)ccc4c(CCC(=O)O)cn(C)c34)no2)cc1C#N [Example 106, 3-[7-(5-{3-Cyano-4-[(1-methylethyl)oxy]phenyl}-1,2,4-oxadiazol-3-yl)-6-fluoro-1-methyl-1H-indol-3-yl]propanoic acid] | 
< 1 | CC(C)Oc1ccc(-c2nc(-c3cc4[nH]cc(CCC(=O)O)c4cc3F)no2)cc1Cl [Example 109, 3-[6-(5-{3-Chloro-4-[(1-methylethyl)oxy]phenyl}-1,2,4-oxadiazol-3-yl)-5-fluoro-1H-indol-3-yl]propanoic acid] | 
< 1 | CC(C)Oc1ccc(-c2nc(-c3cc4[nH]cc(CCC(=O)O)c4cc3F)no2)cc1C#N [Example 110, 3-[6-(5-{3-Cyano-4-[(1-methylethyl)oxy]phenyl}-1,2,4-oxadiazol-3-yl)-5-fluoro-1H-indol-3-yl]propanoic acid] | 
< 10 | CC(C)Oc1ncc(-c2nc(-c3cc4[nH]cc(CCC(=O)O)c4cc3F)no2)cc1Cl [Example 111, 3-[6-(5-{5-Chloro-6-[(1-methylethyl)oxy]-3-pyridinyl}-1,2,4-oxadiazol-3-yl)-5-fluoro-1H-indol-3-yl]propanoic acid] | 
 | CCCCCCCCc1ccc(CCC(N)(CO)CO)cc1 [FTY720] | bradycardia [2]: results in bradycardia; effect on circulating lymphocytes [3]: reduce circulating lymphocytes
